The target in the assay is Human TRPA1 (Homo sapiens, UniProt O75762). As to the kind of experiment: Alternative TRPA1 Ca2+ fluorometry assay (hTRPA1/TREx-HEK293 cells, Fluo-4, FDSS 6000). Type of assay: cell-based. Further details: expressed in transfected cells. Particulars: Fluo-4-AM, agonist 6,11-dihydro-5H-dibenzo[b,e]azepine-10-carboxylic acid methyl ester 25 nM, procedure used for Examples 184, 190 to 192, 194 to 316. The gist of the method:
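Tetracycline-induced (50 ng/ml, 24 h) hTRPA1/TREx-HEK293 cells were loaded with Fluo-4-AM and probenecid. Compound (1% DMSO final) was added after a 12 s baseline and the Ca2+ signal followed for 14 min, then 25 nM TRPA1 agonist dibenzazepine carboxylic acid methyl ester was applied. Signal is Em540 (ex 488 nm) relative to the first baseline reading.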

Human TRPA1, sequence (O75762 whole entry): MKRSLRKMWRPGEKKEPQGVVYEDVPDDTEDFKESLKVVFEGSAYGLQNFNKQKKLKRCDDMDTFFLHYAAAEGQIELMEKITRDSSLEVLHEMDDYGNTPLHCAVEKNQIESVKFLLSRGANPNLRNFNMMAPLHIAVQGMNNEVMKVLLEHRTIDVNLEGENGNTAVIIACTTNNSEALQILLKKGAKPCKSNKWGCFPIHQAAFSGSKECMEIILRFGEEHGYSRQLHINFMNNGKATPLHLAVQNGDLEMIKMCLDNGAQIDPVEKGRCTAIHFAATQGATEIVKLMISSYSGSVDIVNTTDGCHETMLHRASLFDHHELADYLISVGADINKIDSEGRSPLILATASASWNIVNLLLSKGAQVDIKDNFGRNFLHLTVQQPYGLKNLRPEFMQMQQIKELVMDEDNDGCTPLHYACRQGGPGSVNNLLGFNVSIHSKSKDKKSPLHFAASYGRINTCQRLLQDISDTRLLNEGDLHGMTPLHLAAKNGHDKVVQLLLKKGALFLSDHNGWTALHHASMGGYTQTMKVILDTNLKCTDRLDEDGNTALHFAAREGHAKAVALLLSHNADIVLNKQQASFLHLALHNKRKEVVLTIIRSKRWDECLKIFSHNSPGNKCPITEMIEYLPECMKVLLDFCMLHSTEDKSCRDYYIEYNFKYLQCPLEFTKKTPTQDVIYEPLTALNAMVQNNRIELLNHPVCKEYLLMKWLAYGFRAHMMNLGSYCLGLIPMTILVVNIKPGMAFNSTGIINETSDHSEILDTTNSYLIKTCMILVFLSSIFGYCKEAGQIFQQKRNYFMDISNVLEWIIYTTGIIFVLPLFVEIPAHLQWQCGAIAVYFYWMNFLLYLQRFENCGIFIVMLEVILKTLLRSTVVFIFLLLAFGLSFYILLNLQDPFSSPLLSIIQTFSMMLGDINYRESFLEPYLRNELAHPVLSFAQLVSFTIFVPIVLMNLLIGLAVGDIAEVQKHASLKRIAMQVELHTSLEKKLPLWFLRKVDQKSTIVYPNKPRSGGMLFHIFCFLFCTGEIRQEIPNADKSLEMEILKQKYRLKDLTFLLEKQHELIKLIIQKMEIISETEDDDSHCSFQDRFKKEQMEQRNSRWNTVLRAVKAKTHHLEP

The compound `O=C(NCc1cc(-c2ccc(C(F)(F)F)cc2)nc(N2CCN(c3ccccc3F)CC2)n1)[C@@H]1CCCN1S(=O)(=O)c1cccc(Cl)c1` [Example 254, 1-(3-Chloro-benzenesulfonyl)-pyrrolidine-2S-carboxylic acid [2-[4-(2-fluoro-phenyl)-piperazin-1-yl]-6-(4-trifluoromethyl-phenyl)-pyrimidin-4-ylmethyl]-amide] registered an IC50 above 10 µM.

As for `COc1ccc(S(=O)(=O)N2CCC[C@H]2C(=O)NCc2cc(-c3ccc(C(F)(F)F)cc3)nc(N3CCN(c4ccccc4F)CC3)n2)cc1` [Example 255, 1-(4-Methoxy-benzenesulfonyl)-pyrrolidine-2S-carboxylic acid [2-[4-(2-fluoro-phenyl)-piperazin-1-yl]-6-(4-trifluoromethyl-phenyl)-pyrimidin-4-ylmethyl]-amide], the concentration for half-maximal inhibition (IC50) was above 10 µM.

Regarding `Cc1ccc(F)cc1S(=O)(=O)N1CCC[C@H]1C(=O)NCc1cc(-c2ccc(C(F)(F)F)cc2)nc(N2CCN(c3ccccc3F)CC2)n1` [Example 256, 1-(5-Fluoro-2-methyl-benzenesulfonyl)-pyrrolidine-2-carboxylic acid [2-[4-(2-fluoro-phenyl)-piperazin-1-yl]-6-(4-trifluoromethyl-phenyl)-pyrimidin-4-ylmethyl]-amide], the IC50 is above 10 µM.

Regarding `O=C(NCc1cc(-c2ccc(C(F)(F)F)cc2)nc(N2CCN(c3ccccc3F)CC2)n1)[C@@H]1CCCN1S(=O)(=O)c1cc(Cl)ccc1F` [Example 257, 1-(5-Chloro-2-fluoro-benzenesulfonyl)-pyrrolidine-2S-carboxylic acid [2-[4-(2-fluoro-phenyl)-piperazin-1-yl]-6-(4-trifluoromethyl-phenyl)-pyrimidin-4-ylmethyl]-amide], the IC50 is above 10 µM.

As for `O=C(NCc1cc(-c2ccc(C(F)(F)F)cc2)nc(N2CCN(c3ccccc3F)CC2)n1)[C@@H]1CCCN1S(=O)(=O)c1ccc(F)c(F)c1` [Example 258, 1-(3,4-Difluoro-benzenesulfonyl)-pyrrolidine-2S-carboxylic acid [2-[4-(2-fluoro-phenyl)-piperazin-1-yl]-6-(4-trifluoromethyl-phenyl)-pyrimidin-4-ylmethyl]-amide], the IC50 amounted to 0.324 µM.

Take `O=C(NCc1cc(-c2ccc(C(F)(F)F)cc2)nc(N2CCN(c3ccccc3F)CC2)n1)[C@@H]1CCCN1S(=O)(=O)c1ccc(F)c(Cl)c1` [Example 259, 1-(3-Chloro-4-fluoro-benzenesulfonyl)-pyrrolidine-2S-carboxylic acid [2-[4-(2-fluoro-phenyl)-piperazin-1-yl]-6-(4-trifluoromethyl-phenyl)-pyrimidin-4-ylmethyl]-amide]: the IC50 was 3.55 µM.

`CC(C)c1ccc(S(=O)(=O)N2CCC[C@H]2C(=O)NCc2cc(-c3ccc(C(F)(F)F)cc3)nc(N3CCN(c4ccccc4F)CC3)n2)cc1` [Example 260, 1-(4-Isopropyl-benzenesulfonyl)-pyrrolidine-2S-carboxylic acid [2-[4-(2-fluoro-phenyl)-piperazin-1-yl]-6-(4-trifluoromethyl-phenyl)-pyrimidin-4-ylmethyl]-amide] showed an IC50 above 10 µM.

As to `O=C(NCc1cc(-c2ccc(C(F)(F)F)cc2)nc(N2CCN(c3ccccc3F)CC2)n1)[C@@H]1CCCN1S(=O)(=O)c1ccc(F)c(F)c1F` [Example 261, 1-(2,3,4-Trifluoro-benzenesulfonyl)-pyrrolidine-2S-carboxylic acid [2-[4-(2-fluoro-phenyl)-piperazin-1-yl]-6-(4-trifluoromethyl-phenyl)-pyrimidin-4-ylmethyl]-amide], the 50% inhibitory concentration (IC50) turned out to be 2.69 µM. That is a single-digit micromolar value.

In turn, `Cc1c(Cl)cccc1S(=O)(=O)N1CCC[C@H]1C(=O)NCc1cc(-c2ccc(C(F)(F)F)cc2)nc(N2CCN(c3ccccc3F)CC2)n1` [Example 262, 1-(3-Chloro-2-methyl-benzenesulfonyl)-pyrrolidine-2S-carboxylic acid [2-[4-(2-fluoro-phenyl)-piperazin-1-yl]-6-(4-trifluoromethyl-phenyl)-pyrimidin-4-ylmethyl]-amide] displayed an IC50 above 10 µM.

The compound `O=C(NCc1cc(-c2ccc(C(F)(F)F)cc2)nc(N2CCN(c3ccccc3F)CC2)n1)[C@@H]1CCCN1S(=O)(=O)c1ccc(Cl)s1` [Example 263, 1-(5-Chloro-thiophene-2-sulfonyl)-pyrrolidine-2S-carboxylic acid [2-[4-(2-fluoro-phenyl)-piperazin-1-yl]-6-(4-trifluoromethyl-phenyl)-pyrimidin-4-ylmethyl]-amide] returned an IC50 of 0.191 µM.

In turn, `O=C(NCc1cc(-c2ccc(C(F)(F)F)cc2)nc(N2CCN(c3ccccc3F)CC2)n1)[C@@H]1CCCN1S(=O)(=O)c1cccs1` [Example 264, 1-(Thiophene-2-sulfonyl)-pyrrolidine-2S-carboxylic acid [2-[4-(2-fluoro-phenyl)-piperazin-1-yl]-6-(4-trifluoromethyl-phenyl)-pyrimidin-4-ylmethyl]-amide] yielded an IC50 of around 0.933 µM.

In the case of `CCCc1ccc(S(=O)(=O)N2CCC[C@H]2C(=O)NCc2cc(-c3ccc(C(F)(F)F)cc3)nc(N3CCN(c4ccccc4F)CC3)n2)cc1` [Example 265, 1-(4-Propyl-benzenesulfonyl)-pyrrolidine-2S-carboxylic acid [2-[4-(2-fluoro-phenyl)-piperazin-1-yl]-6-(4-trifluoromethyl-phenyl)-pyrimidin-4-ylmethyl]-amide], the IC50 was above 10 µM.

The compound `Cc1ccc(C)c(S(=O)(=O)N2CCC[C@H]2C(=O)NCc2cc(-c3ccc(C(F)(F)F)cc3)nc(N3CCN(c4ccccc4F)CC3)n2)c1` [Example 266, 1-(2,5-Dimethyl-benzenesulfonyl)-pyrrolidine-2S-carboxylic acid [2-[4-(2-fluoro-phenyl)-piperazin-1-yl]-6-(4-trifluoromethyl-phenyl)-pyrimidin-4-ylmethyl]-amide] showed an IC50 above 10 µM.

`O=C(NCc1cc(-c2ccc(C(F)(F)F)cc2)nc(N2CCN(c3ccccc3F)CC2)n1)[C@@H]1CCCN1S(=O)(=O)c1ccc(F)cc1F` [Example 267, 1-(2,4-Difluoro-benzenesulfonyl)-pyrrolidine-2S-carboxylic acid [2-[4-(2-fluoro-phenyl)-piperazin-1-yl]-6-(4-trifluoromethyl-phenyl)-pyrimidin-4-ylmethyl]-amide] displayed an IC50 of 7.94 µM.

Consider `O=C(NCc1cc(-c2ccc(C(F)(F)F)cc2)nc(N2CCN(c3ccccc3F)CC2)n1)[C@@H]1CCCN1S(=O)(=O)c1ccccc1Cl` [Example 268, 1-(2-Chloro-benzenesulfonyl)-pyrrolidine-2S-carboxylic acid [2-[4-(2-fluoro-phenyl)-piperazin-1-yl]-6-(4-trifluoromethyl-phenyl)-pyrimidin-4-ylmethyl]-amide], for which the IC50 is above 10 µM.

With `O=C(NCc1cc(-c2ccc(C(F)(F)F)cc2)nc(N2CCN(c3ccccc3F)CC2)n1)[C@@H]1CCCN1S(=O)(=O)c1ccc(Cl)cc1` [Example 269, 1-(4-Chloro-benzenesulfonyl)-pyrrolidine-2S-carboxylic acid [2-[4-(2-fluoro-phenyl)-piperazin-1-yl]-6-(4-trifluoromethyl-phenyl)-pyrimidin-4-ylmethyl]-amide], the IC50 stood at 0.229 µM.

Consider `O=C(NCc1cc(-c2ccc(C(F)(F)F)cc2)nc(N2CCN(c3ccccc3F)CC2)n1)[C@@H]1CCCN1S(=O)(=O)c1cccc(F)c1` [Example 270, 1-(3-Fluoro-benzenesulfonyl)-pyrrolidine-2S-carboxylic acid [2-[4-(2-fluoro-phenyl)-piperazin-1-yl]-6-(4-trifluoromethyl-phenyl)-pyrimidin-4-ylmethyl]-amide], for which the IC50 stood at 0.692 µM.

Compound `Cc1cccc(S(=O)(=O)N2CCC[C@H]2C(=O)NCc2cc(-c3ccc(C(F)(F)F)cc3)nc(N3CCN(c4ccccc4F)CC3)n2)c1` [Example 271, 1-(Toluene-3-sulfonyl)-pyrrolidine-2S-carboxylic acid [2-[4-(2-fluoro-phenyl)-piperazin-1-yl]-6-(4-trifluoromethyl-phenyl)-pyrimidin-4-ylmethyl]-amide] showed a concentration for half-maximal inhibition (IC50) above 10 µM.

In the case of `O=C(NCc1cc(-c2ccc(C(F)(F)F)cc2)nc(N2CCN(c3ccccc3F)CC2)n1)[C@@H]1CCCN1S(=O)(=O)c1ccccc1` [Example 272, 1-Benzenesulfonyl-pyrrolidine-2S-carboxylic acid [2-[4-(2-fluoro-phenyl)-piperazin-1-yl]-6-(4-trifluoromethyl-phenyl)-pyrimidin-4-ylmethyl]-amide], the IC50 is around 0.436 µM.

`O=C(NCc1cc(-c2ccc(C(F)(F)F)cc2)nc(N2CCN(c3ccccc3F)CC2)n1)[C@@H]1CCCN1S(=O)(=O)c1cccc(Cl)c1F` [Example 273, 1-(3-Chloro-2-fluoro-benzenesulfonyl)-pyrrolidine-2S-carboxylic acid [2-[4-(2-fluoro-phenyl)-piperazin-1-yl]-6-(4-trifluoromethyl-phenyl)-pyrimidin-4-ylmethyl]-amide] yielded an IC50 above 10 µM.

In turn, `CC(=O)c1ccc(S(=O)(=O)N2CCC[C@H]2C(=O)NCc2cc(-c3ccc(C(F)(F)F)cc3)nc(N3CCN(c4ccccc4F)CC3)n2)cc1` [Example 274, 1-(4-Acetyl-benzenesulfonyl)-pyrrolidine-2S-carboxylic acid [2-[4-(2-fluoro-phenyl)-piperazin-1-yl]-6-(4-trifluoromethyl-phenyl)-pyrimidin-4-ylmethyl]-amide] came in with a 50% inhibitory concentration (IC50) above 10 µM.

Regarding `Cc1cc(C)c(S(=O)(=O)N2CCC[C@H]2C(=O)NCc2cc(-c3ccc(C(F)(F)F)cc3)nc(N3CCN(c4ccccc4F)CC3)n2)c(C)c1` [Example 275, 1-(2,4,6-Trimethyl-benzenesulfonyl)-pyrrolidine-2-carboxylic acid [2-[4-(2-fluoro-phenyl)-piperazin-1-yl]-6-(4-trifluoromethyl-phenyl)-pyrimidin-4-ylmethyl]-amide], the IC50 is above 10 µM.

The record behind these values is patent US8614201B2 (Janssen Pharmaceutica NV, priority 2009, dated 2013).
